# Test results reported in publication PMC3621575 (ACS Chemical Biology, 2012).
# How the values were obtained:
# [1] = tested on: CDK9; details: primary chronic lymphocytic leukemia cells; cited from earlier work
# [2] = tested on: CRK7; details: primary chronic lymphocytic leukemia cells; cited from earlier work
# [3] = tested on: PCSTAIRE2; details: primary chronic lymphocytic leukemia cells; cited from earlier work
# [4] = tested on: human kinome in primary chronic lymphocytic leukemia cells; details: cited from earlier work
# [5] = target: T1, T. brucei CRK1 (Trypanosoma brucei brucei, UniProt P38973); assay: Kinobead profiling, T. brucei lysate, CRK1; assay type: binding; details: T. brucei cell lysate
# T1 sequence (P38973 1-301): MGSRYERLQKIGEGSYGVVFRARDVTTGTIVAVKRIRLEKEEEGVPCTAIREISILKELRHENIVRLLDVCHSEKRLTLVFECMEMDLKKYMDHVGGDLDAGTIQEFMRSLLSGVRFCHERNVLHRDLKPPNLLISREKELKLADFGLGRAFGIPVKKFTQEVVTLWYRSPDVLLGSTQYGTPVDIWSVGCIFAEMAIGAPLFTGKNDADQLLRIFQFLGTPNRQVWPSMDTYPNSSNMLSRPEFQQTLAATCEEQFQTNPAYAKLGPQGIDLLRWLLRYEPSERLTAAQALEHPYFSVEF
structure (smiles),measurement,setting,value
CC(C)(C)c1cnc(CSc2cnc(NC(=O)C3CCNCC3)s2)o1 [BMS-387032],"kinobead IC50, CDK9",[1],submicromolar
same,"kinobead IC50, CRK7",[2],submicromolar
same,"kinobead IC50, PCSTAIRE2",[3],submicromolar
same,observed CDKs inhibited,[4],all of the seven
same,kinobead inhibition of CRK1,[5],no inhibition
